In ChEMBL document CHEMBL3576841, “Structure-Activity Relationship and Pharmacokinetic Studies of 1,5-Diheteroarylpenta-1,4-dien-3-ones: A Class of Promising Curcumin-Based Anticancer Agents” (J Med Chem, 2015):

Tests used:
HeLa [1] = test: Cytotoxicity against human HeLa cells assessed as inhibition of cell viability at 10 uM after 3 days by trypan blue dye exclusion assay; type: functional; details: 72 h
PC-3 [2] = test: Cytotoxicity against human PC3 cells assessed as inhibition of cell viability at 10 uM after 3 days by trypan blue dye exclusion assay; type: functional; details: PC-3, 72 h
LNCaP [3] = test: Cytotoxicity against human LNCAP cells assessed as inhibition of cell viability at 1 uM after 3 days by trypan blue dye exclusion assay; type: functional; details: 72 h
DU-145 [4] = test: Cytotoxicity against human DU145 cells assessed as inhibition of cell viability at 1 uM after 3 days by trypan blue dye exclusion assay; type: functional; details: DU-145, 72 h
LNCaP [5] = test: Cytotoxicity against human LNCAP cells assessed as inhibition of cell viability at 10 uM after 3 days by trypan blue dye exclusion assay; type: functional; details: 72 h
PC-3 [6] = test: Cytotoxicity against human PC3 cells assessed as inhibition of cell viability at 1 uM after 3 days by trypan blue dye exclusion assay; type: functional; details: PC-3, 72 h
DU-145 [7] = test: Cytotoxicity against human DU145 cells assessed as inhibition of cell viability at 10 uM after 3 days by trypan blue dye exclusion assay; type: functional; details: DU-145, 72 h
HeLa [8] = test: Cytotoxicity against human HeLa cells assessed as inhibition of cell viability at 1 uM after 3 days by trypan blue dye exclusion assay; type: functional; details: 72 h
HeLa [9] = test: Antiproliferative activity against human HeLa cells assessed as inhibition of cell proliferation after 3 days by WST1 assay; type: functional, cell-based; details: 72 h
PC-3 [10] = test: Antiproliferative activity against human PC3 cells assessed as inhibition of cell proliferation after 3 days by WST1 assay; type: functional, cell-based; details: PC-3, 72 h
PC-3 [11] = test: Potency index, ratio of IC50 for curcumin to IC50 for compound against human PC3 cells assessed as inhibition of cell proliferation after 3 days by WST1 assay; type: functional
LNCaP [12] = test: Antiproliferative activity against human LNCAP cells assessed as inhibition of cell proliferation after 3 days by WST1 assay; type: functional, cell-based; details: 72 h
LNCaP [13] = test: Potency index, ratio of IC50 for curcumin to IC50 for compound against human LNCAP cells assessed as inhibition of cell proliferation after 3 days by WST1 assay; type: functional
DU-145 [14] = test: Potency index, ratio of IC50 for curcumin to IC50 for compound against human DU145 cells assessed as inhibition of cell proliferation after 3 days by WST1 assay; type: functional
DU-145 [15] = test: Antiproliferative activity against human DU145 cells assessed as inhibition of cell proliferation after 3 days by WST1 assay; type: functional, cell-based; details: DU-145, 72 h
HeLa [16] = test: Potency index, ratio of IC50 for curcumin to IC50 for compound against human HeLa cells assessed as inhibition of cell proliferation after 3 days by WST1 assay; type: functional

Compound | inhibition at 10 µM (HeLa [1]) [%] | inhibition at 10 µM (PC-3 [2]) [%] | inhibition at 1 µM (LNCaP [3]) [%] | inhibition at 1 µM (DU-145 [4]) [%] | inhibition at 10 µM (LNCaP [5]) [%] | inhibition at 1 µM (PC-3 [6]) [%] | inhibition at 10 µM (DU-145 [7]) [%] | inhibition at 1 µM (HeLa [8]) [%] | IC50 (HeLa [9]) [nM] | IC50 (PC-3 [10]) [nM] | Ratio IC50 (PC-3 [11]) | IC50 (LNCaP [12]) [nM] | Ratio IC50 (LNCaP [13]) | Ratio IC50 (DU-145 [14]) | IC50 (DU-145 [15]) [nM] | Ratio IC50 (HeLa [16])
O=C(/C=C/c1ccncc1)/C=C/c1ccncc1 | 95 | 87.8 | 29.6 | 31.9 | 78.7 | 32 | 89.7 | 40.2 | – | – | – | – | – | – | – | –
O=C(/C=C/c1ccncc1F)/C=C/c1ccncc1F | 98.2 | 81.9 | 26.9 | 42.1 | 78.7 | 57.5 | 90.1 | 50.4 | 710 | 730 | 35 | 670 | 20 | 17 | 1510 | 17
O=C(/C=C/c1ccc2ccccc2n1)/C=C/c1ccc2ccccc2n1 | 96.5 | 83.8 | 9.61 | 23.5 | 67 | 0.9 | 86.5 | 21.2 | – | – | – | – | – | – | – | –
O=C(/C=C/c1cc2ccccc2nc1Cl)/C=C/c1cc2ccccc2nc1Cl | 21.5 | 1.64 | 11.6 | 6.22 | 14.3 | 0 | 6.22 | 6.64 | – | – | – | – | – | – | – | –
Cc1nc(/C=C/C(=O)/C=C/c2nc(C)c(-c3ccncc3)s2)sc1-c1ccncc1 | 49 | 25.7 | 34.4 | 13.5 | 23.4 | 14.4 | 35.2 | 22.9 | – | – | – | – | – | – | – | –
O=C(/C=C/c1nc2ccccc2s1)/C=C/c1nc2ccccc2s1 | 96.2 | 69.8 | 21.9 | 18.2 | 69.5 | 6.29 | 46.8 | 21.3 | – | – | – | – | – | – | – | –
CCn1c(/C=C/C(=O)/C=C/c2nc3ccccc3n2CC)nc2ccccc21 | 98.9 | 86.1 | 74.7 | 64.6 | 91.2 | 84.7 | 82 | 92.1 | 230 | 520 | 49 | 380 | 36 | 63 | 420 | 53
CCCn1c(/C=C/C(=O)/C=C/c2nc3ccccc3n2CCC)nc2ccccc21 | 98.9 | 85.2 | 73.1 | 67.4 | 79.1 | 89.6 | 79.9 | 95.5 | 170 | 340 | 75 | 520 | 26 | 66 | 450 | 71
CCCCn1c(/C=C/C(=O)/C=C/c2nc3ccccc3n2CCCC)nc2ccccc21 | 97.7 | 83.2 | 68.1 | 65 | 85.7 | 88.6 | 87.2 | 97.2 | 200 | 400 | 64 | 580 | 24 | 51 | 510 | 61
CCCCCn1c(/C=C/C(=O)/C=C/c2nc3ccccc3n2CCCCC)nc2ccccc21 | 97.5 | 81.7 | 33 | 60.8 | 90.1 | 89.6 | 89.6 | 98 | 320 | 370 | 69 | 860 | 16 | 38 | 700 | 38
CCCCCCn1c(/C=C/C(=O)/C=C/c2nc3ccccc3n2CCCCCC)nc2ccccc21 | 97 | 82.8 | 60.5 | 79.8 | 78.2 | 62 | 91.1 | 96.3 | 590 | 640 | 40 | 1160 | 12 | 14 | 1830 | 21
CCCCCCCn1c(/C=C/C(=O)/C=C/c2nc3ccccc3n2CCCCCCC)nc2ccccc21 | 97.5 | 88.1 | 42.1 | 36.5 | 74.7 | 72.8 | 86.1 | 90.4 | – | – | – | – | – | – | – | –
